US20230233425A1, “USE OF VOLATILE COMPOSITIONS TO LIMIT OR ELIMINATE THE PERCEPTION OF MALODOR” (Firmenich SA, priority 2017, published 2023)
Where “and” joins values, the source holds several entries; their conditions need not be identical. Equal entries are not always repeated. Where two headings read alike, the source gives them in different places. Marks after values point to notes of the source that are not given here.

Assays:
[1] = molecular target: T1, OR51E1 olfactory receptor (Homo sapiens, UniProt Q8TCB6); assay: Butyric acid olfactory receptor antagonist cell-based dose-response vs butyric acid EC80; settings: butyric acid at EC80; Table 5
T1 construct: expressed in transfected cells
T1 sequence (Q8TCB6 1-318): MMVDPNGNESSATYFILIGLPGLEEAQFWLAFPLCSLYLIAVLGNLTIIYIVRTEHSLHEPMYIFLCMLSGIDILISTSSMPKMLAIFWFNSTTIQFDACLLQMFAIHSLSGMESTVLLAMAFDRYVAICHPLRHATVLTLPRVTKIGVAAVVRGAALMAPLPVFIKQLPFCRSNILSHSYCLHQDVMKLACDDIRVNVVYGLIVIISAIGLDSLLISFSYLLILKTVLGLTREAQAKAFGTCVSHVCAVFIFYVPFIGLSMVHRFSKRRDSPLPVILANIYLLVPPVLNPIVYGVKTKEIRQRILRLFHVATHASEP

Olfr749 = molecular target: T2, Olfr749 (Mus musculus, UniProt E9Q438); assay: Indole antagonist dose-response, cAMP HTRF in HEK293T, vs indole EC80; type: cell-based; settings: Table 23
T2 construct: Flag; Rho tag; expressed in transfected cells
T2 sequence (E9Q438 1-313): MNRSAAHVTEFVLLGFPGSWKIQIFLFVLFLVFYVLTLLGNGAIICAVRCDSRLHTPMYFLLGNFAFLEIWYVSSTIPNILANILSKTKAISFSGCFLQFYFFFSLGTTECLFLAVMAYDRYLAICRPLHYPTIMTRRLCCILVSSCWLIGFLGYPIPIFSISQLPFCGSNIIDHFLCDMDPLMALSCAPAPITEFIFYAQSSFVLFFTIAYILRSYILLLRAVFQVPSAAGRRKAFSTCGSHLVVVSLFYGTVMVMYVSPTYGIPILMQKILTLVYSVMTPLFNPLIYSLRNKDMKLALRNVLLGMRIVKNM
Description: (§1) Functional dose-response experiments were performed to identify compounds capable of antagonizing indole-sensitive receptors previously identified (U.S. Pat. No. 9,914,760 B2). Using a cell-based assay, mouse receptor Olfr738, Olfr739, Olfr740, Olfr741, 0fr742, Olfr743, Olfr744, Olfr746, Olfr748 and Olfr749 were tested in an HEK293T cell line wherein the endogenous RTP1 gene has been activated and the odorant receptor chaperone was expressed (described in WO2016201153A1). The receptor genes were tagged with a Flag-Rho tag combination. Receptor genes were co-transfected with the canonical olfactory human G-protein alpha subunit Golf gene. Co-expression of the human Golf activates the Gs transduction pathway that leads to an internal cAMP increase upon binding to the appropriate ligand (indole here). Odorant-induced activity was detected by measuring the cAMP increase in the cytosol using an HTRF based kit (CisBio, cAMP dynamic 2 kit, cat. 62AM4PEJ). The receptors were exposed to binary mixtures of increasing concentrations of the test compounds in the presence of a potent activation concentration of indole (EC80) for each receptor. […] All the compounds listed decreased the indole induced activity of at least one receptor.

Olfr741 = Olfr741 (Mus musculus, UniProt L7N1Y5); assay: as above; type: cell-based
Olfr741, sequence (L7N1Y5 entry or part of it): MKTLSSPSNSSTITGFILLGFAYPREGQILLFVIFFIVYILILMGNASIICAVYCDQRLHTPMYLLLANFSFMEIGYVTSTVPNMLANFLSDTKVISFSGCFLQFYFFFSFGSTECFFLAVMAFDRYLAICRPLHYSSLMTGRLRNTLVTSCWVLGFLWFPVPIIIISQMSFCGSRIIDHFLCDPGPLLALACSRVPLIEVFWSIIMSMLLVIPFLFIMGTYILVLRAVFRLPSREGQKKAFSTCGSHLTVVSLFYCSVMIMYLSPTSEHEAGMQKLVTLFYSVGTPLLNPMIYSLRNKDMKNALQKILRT
Description: (§2) Using a cell-based assay, mouse receptor Olfr738, Olfr739, Olfr740, Olfr741, 0fr742, Olfr743, Olfr744, Olfr746, Olfr748 and Olfr749 were tested in an HEK293T cell line wherein the endogenous RTP1 gene has been activated and the odorant receptor chaperone was expressed (described in WO2016201153A1). The receptor genes were tagged with a Flag-Rho tag combination. Receptor genes were co-transfected with the canonical olfactory human G-protein alpha subunit Golf gene. Co-expression of the human Golf activates the Gs transduction pathway that leads to an internal cAMP increase upon binding to the appropriate ligand (indole here). Odorant-induced activity was detected by measuring the cAMP increase in the cytosol using an HTRF based kit (CisBio, cAMP dynamic 2 kit, cat. 62AM4PEJ).

Olfr742 = Olfr742 (Mus musculus, UniProt A2RTP5); assay: as above; type: cell-based; settings: vs indole EC80; for Emax: HEK-293T, read-out: Olfr742 % Inhibition; for IC50: read-out: Olfr742 IC50
Olfr742, sequence (A2RTP5 entry or part of it): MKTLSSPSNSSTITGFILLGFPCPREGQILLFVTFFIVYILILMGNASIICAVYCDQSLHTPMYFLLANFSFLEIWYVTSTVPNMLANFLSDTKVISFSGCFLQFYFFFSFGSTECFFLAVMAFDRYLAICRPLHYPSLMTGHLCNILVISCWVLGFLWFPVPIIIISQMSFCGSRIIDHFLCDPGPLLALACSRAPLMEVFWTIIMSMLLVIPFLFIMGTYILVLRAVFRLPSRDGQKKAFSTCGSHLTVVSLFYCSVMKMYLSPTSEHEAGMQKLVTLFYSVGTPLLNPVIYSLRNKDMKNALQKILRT
Description: as §2

Olfr740 = Olfr740 (Mus musculus, UniProt E9PV79); assay: as above; type: cell-based; settings: vs indole EC80; for Emax: HEK-293T, read-out: Olfr740 % Inhibition; for IC50: read-out: Olfr740 IC50
Olfr740, sequence (E9PV79 entry or part of it): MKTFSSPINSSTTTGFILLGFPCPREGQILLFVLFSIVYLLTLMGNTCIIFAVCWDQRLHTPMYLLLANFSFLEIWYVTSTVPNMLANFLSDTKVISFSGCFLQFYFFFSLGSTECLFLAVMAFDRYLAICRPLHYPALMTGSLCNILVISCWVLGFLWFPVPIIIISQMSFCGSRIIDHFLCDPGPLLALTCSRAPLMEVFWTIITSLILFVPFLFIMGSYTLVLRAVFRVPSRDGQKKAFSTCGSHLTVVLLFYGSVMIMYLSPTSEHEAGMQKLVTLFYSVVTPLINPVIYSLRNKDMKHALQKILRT
Description: as §2

Olfr738 = Olfr738 (Mus musculus, UniProt L7N1X7); assay: as above; type: cell-based; settings: vs indole EC80; for IC50: read-out: Olfr738 IC50
Olfr738, sequence (L7N1X7 entry or part of it): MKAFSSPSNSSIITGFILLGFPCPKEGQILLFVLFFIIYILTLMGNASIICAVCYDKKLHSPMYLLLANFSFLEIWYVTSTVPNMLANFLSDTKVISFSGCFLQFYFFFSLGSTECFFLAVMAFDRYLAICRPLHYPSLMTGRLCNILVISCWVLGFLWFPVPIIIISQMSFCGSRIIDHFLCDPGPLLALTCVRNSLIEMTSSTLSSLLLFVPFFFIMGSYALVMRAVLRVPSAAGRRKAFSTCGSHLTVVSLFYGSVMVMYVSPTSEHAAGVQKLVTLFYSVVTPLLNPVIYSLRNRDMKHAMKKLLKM
Description: as §2

Olfr746 = molecular target: T3, Olfr746 (Mus musculus, UniProt E9Q840); assay: as above; type: cell-based; settings: Table 23
T3 construct: Flag; Rho tag; expressed in transfected cells
T3 sequence (E9Q840 1-314): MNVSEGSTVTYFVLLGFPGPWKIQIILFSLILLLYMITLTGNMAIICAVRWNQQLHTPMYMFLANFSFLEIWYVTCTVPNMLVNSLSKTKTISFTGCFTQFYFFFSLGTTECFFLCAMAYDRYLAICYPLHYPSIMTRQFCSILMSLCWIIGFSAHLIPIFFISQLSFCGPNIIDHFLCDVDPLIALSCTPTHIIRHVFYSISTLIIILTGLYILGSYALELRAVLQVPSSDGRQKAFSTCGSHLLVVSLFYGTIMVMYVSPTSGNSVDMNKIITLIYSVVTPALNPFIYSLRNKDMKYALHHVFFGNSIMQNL
Description: as §1

[2] = system: geonol receptors Olfr339, Olfr1487, Olfr1A1, OR11A1, Olfr96; assay: Antagonists of geonol receptors (Example 11); type: cell-based, mouse and human; set-up: Inhibition(%): concentration or dose not given beside the values; settings: Table 18
[3] = system: OR11A1, or the OR2M3 olfactory receptor; assay: Geonol olfactory receptor antagonist cell-based screening, inhibitory dose-response vs geonol EC80; set-up: species or system human; settings: geonol at EC80; read-out: IC50
[4] = system: geonol malodor (earthy/moss odor) perception; assay: Sensory evaluation of geonol earthy/moss odor in iso-intense binary mixtures (glass jars); type: in vivo, human; settings: iso-intense binary mixture
Source text: Sensory Evaluation: Five 16 oz glass jars containing either REF (geonol only), geonol only control, antagonist only, mixture of geonol and isointense antagonist, or mixture of geonol and low intensity antagonist were presented to the panelists (last four samples were randomized across panelists). The panelists were asked to familiarize themselves with the earthy/moss odor quality from the REF jar first, then rate the pleasantness, earthy/moss odor intensity and overall odor intensity of the next four samples on a 0-10 linear scale. The inter-stimulus interval between the samples was two minutes to avoid adaptation.

Olfr743 = Olfr743 (Mus musculus, UniProt L7N1Y2); assay: Indole antagonist dose-response, cAMP HTRF in HEK293T, vs indole EC80; type: cell-based; settings: Table 23
Olfr743, sequence (L7N1Y2 entry or part of it): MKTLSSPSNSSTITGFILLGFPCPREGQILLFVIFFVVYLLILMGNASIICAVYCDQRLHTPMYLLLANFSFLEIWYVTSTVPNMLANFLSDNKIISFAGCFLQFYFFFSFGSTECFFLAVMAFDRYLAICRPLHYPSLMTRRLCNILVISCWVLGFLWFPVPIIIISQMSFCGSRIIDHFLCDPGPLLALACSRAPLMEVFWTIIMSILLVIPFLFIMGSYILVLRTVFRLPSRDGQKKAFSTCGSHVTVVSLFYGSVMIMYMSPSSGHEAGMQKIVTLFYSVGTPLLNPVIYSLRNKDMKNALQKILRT
Description: as §1

Olfr744 = molecular target: T4, Olfr744 (Mus musculus, UniProt Q7TRM0); assay: as above; type: cell-based; settings: Table 23
T4 construct: Flag; Rho tag; expressed in transfected cells
T4 sequence (Q7TRM0 1-323): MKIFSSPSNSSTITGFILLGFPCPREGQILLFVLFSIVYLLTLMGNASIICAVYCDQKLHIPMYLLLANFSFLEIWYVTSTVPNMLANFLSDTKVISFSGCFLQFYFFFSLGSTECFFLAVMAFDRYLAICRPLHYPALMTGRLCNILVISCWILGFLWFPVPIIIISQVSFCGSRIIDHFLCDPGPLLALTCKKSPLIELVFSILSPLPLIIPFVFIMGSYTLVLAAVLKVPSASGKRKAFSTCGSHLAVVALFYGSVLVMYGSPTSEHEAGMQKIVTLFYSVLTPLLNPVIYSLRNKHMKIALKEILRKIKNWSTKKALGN
Description: as §1

Olfr739 = Olfr739 (Mus musculus, UniProt E9Q1P0); assay: as above; type: cell-based
Olfr739, sequence (E9Q1P0 entry or part of it): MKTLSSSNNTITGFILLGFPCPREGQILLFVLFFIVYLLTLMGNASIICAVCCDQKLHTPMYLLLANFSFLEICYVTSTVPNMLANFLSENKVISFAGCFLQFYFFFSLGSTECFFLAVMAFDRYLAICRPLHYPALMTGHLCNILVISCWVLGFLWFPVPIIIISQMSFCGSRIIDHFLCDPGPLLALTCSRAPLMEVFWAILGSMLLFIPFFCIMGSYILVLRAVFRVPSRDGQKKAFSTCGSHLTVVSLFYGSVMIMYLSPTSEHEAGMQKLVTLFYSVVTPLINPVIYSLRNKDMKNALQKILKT
Description: as §1

[5] = system: geonol earthy/moss odor perception; assay: Human sensory performance of test compounds with and without geonol; type: in vivo; settings: for % Earthy/Moss Odor: Test Compound Only
In short: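 Panelists first learned the earthy/moss quality from a geonol-only reference, then rated pleasantness, earthy/moss intensity and overall intensity of geonol alone, antagonist alone, and geonol mixed with isointense or low-intensity antagonist on a 0-10 linear scale. Samples were presented in glass jars in randomized order with two-minute intervals.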

[6] = system: 1-octen-3-ol mushroom/earthy/fungal odor perception; assay: Human sensory performance of test compounds with and without 1-octen-3-ol; type: in vivo
[7] = molecular target: 1-octen-3-ol receptors OR2W1, Olfr93, Olfr120, Olfr398; assay: Antagonists of 1-octen-3-ol receptors (Example 11); type: cell-based, mouse and human; set-up: Inhibition(%): concentration or dose not given beside the values; settings: Table 19
[8] = Table 22, second listing of the same compounds
[9] = Table 22, first listing (r7-r45)
[10] = Low Dilution Test Compound + Geonol (0.1%)
[11] = Medium Dilution Test Compound + Geonol (0.1%)

| Compound | IC50 (Olfr749) | IC50 (Olfr741; Table 22, first listing) | Olfr741 % Inhibition (Olfr741; Table 22, first listing) | Emax (Olfr742; [8]) | Emax (Olfr740; Table 22, first listing) | IC50 (Olfr740; [9]) | IC50 (Olfr738; [9]) | Olfr738 % Inhibition (Olfr738; Table 22, first listing) | Emax (Olfr740; [8]) | % Remaining in human sensory tests [4] | IC50 (Olfr743) | Olfr743 % Inhibition (Olfr743) | IC50 (Olfr744) | Olfr744 % Inhibition (Olfr744) | Olfr739 % Inhibition (Olfr739; Table 22, first listing) | Olfr739 % Inhibition (Olfr739; [8]) | Olfr738 % Inhibition (Olfr738; [8]) | % Earthy/Moss Odor Remaining [5, 10] | % Earthy/Moss Odor Remaining [5, 11] | % Earthy/Moss Odor [5] | further results |
| --- | --- | --- | --- | --- | --- | --- | --- | --- | --- | --- | --- | --- | --- | --- | --- | --- | --- | --- | --- | --- | --- |
| C/C=C/C(=O)C1C(C)=CCCC1(C)C (racemic) [(+−)-(2E)-1-(2,6,6-trimethyl-2-cyclohexen-1-yl)-2-buten-1-one] | 156 µM | 110 µM | 75.65% | 47.9% | 115% | 137 µM | 99.8 µM | 12.19% |  |  |  |  |  |  |  |  |  |  |  |  | IC50 [1]: 50.5 µM; Olfr749 % Inhibition (Olfr749): 47.86%; Emax (Olfr742; Table 22, first listing): 113%; IC50 (Olfr742; [9]): 95.4 µM |
| C=CCCC(=O)C1=CCCC(C)(C)C1 [1-(5,5-dimethylcyclohexen-1-yl)pent-4-en-1-one] |  |  |  |  | 91.2% | 63.6 µM |  |  | 58.9% |  |  |  |  |  |  |  |  |  |  |  | IC50 (Olfr746): 224 µM; Olfr746 % Inhibition (Olfr746): 58.87%; IC50 [2]: 220 µM; Inhibition(%) [2]: 40% |
| 6(8)-ISOPROPYLQUINOLINE [isopropyl quinoline] |  | 91.6 µM | 54.55% |  |  |  |  | 20.66% |  | 110% | 119 µM | 39.62% | 102 µM | 116.59% | 74.96% | 116.59% | 39.62% | 99.60% | 104.70% | 54.70% | IC50 [3]: 400 µM; IC50 (Olfr739; Table 22, first listing): 61.3 µM; Olfr742 % Inhibition (Olfr742; Table 22, first listing): 72.34%; IC50 (Olfr742; Table 22, first listing): 86.6 µM; Olfr740 % Inhibition (Olfr740; Table 22, first listing): 148.06%; IC50 (Olfr740; Table 22, first listing): 40.9 µM; IC50 (Olfr738; Table 22, first listing): 120 µM |
| CC1(C)CCCC2(C)CC(=O)CCC12 (racemic) |  |  |  | 97% |  |  |  |  | 81.4% |  |  |  |  |  |  | 107.89% | 123.10% |  |  |  | IC50 (Olfr741; [8]): 106 µM; Olfr741 % Inhibition (Olfr741; [8]): 65.60% |
| 4-(2,6,6-trimethylcyclohexen-1-yl)but-3-en-2-one; 4-(2,6,6-trimethylcyclohex-2-en-1-yl)but-3-en-2-one | 75.8 µM and 76 µM |  |  |  |  |  |  |  |  | 59* % | 275 µM and 159 µM | 114.78% and 112.64% | 125 µM and 159 µM | 78.23% and 77.99% |  |  |  | 73.40% | 70.30% | 27.10% | % Mushroom/Earthy/Fungal Odor Remaining ([6]; Low Dilution Test Compound + 1-octen-3-ol (0.15%)): 94.80%; % Mushroom/Earthy/Fungal Odor Remaining ([6]; Medium Dilution Test Compound + 1-octen-3-ol (0.15%)): 73.90%; % Mushroom/Earthy/Fungal Odor ([6]; Test Compound Only): 20.30%; IC50 [7]: 146 µM; Inhibition(%) [7]: 79% |
| CC(C)(C)C1CCC(=O)CC1 [4-t-butylcyclohexanone] |  |  |  |  | 213% | 10.6 µM | 43.1 µM | 52.44% |  |  |  |  | 175 µM | 148.19% | 60.32% | 148.19% |  |  |  |  | IC50 (Olfr739; [9]): 69.9 µM |
